This note sets out measurements from patent US20040018220A1, “Aqueous compositions for facial cosmetics” (Chiou Consulting, Inc., priority 2002, published 2004).

The assay has as its system facial skin. Kind of assay: Single application of glycerin U.S.P. and other strengths of aqueous glycerin solutions and gels (Example IV). Format: in vivo, human.

Regarding `OCC(O)CO` [Glycerin U.S.P., glycerin], the feeling on application result (applied to a wetted facial surface) is reported as “better feeling (reduced stickiness)”. Moreover, the “shiny, moist, softening and dewy effects” value (single application, one human subject) was “results similar to those described in Example I”.
